For series [1] the following is noted: purity 91%; N. M. van Os et al. Tenside Surf. Det. 1992, 29 175; cited from earlier work.
Series [2] can be described thus: Critical Micelle Concentration (CMC) from the electrical conductivity-concentration curve at constant temperature. It counts as physicochemical. The note with it: at 22.0° C. As to the method: The Critical Micelle Concentration (CMC) is defined as the concentration of surfactants above which micelles form and all additional surfactants added to the system go to micelles. The CMC is measured by the electrical conductivity-concentration curve at constant temperature.

For series [3] the following is noted: at 20° C.; purity 91%; N. M. van Os et al. Tenside Surf. Det. 1992, 29 175; cited from earlier work.
A short description of series [4]: Krafft Point from the abrupt increase in electrical conductivity as a function of temperature. It counts as physicochemical. As to the method: Krafft Point or Krafft Temperature is defined as the […]. Surfactants form micelles above their Krafft Point and the solubility in water increases abruptly. The Krafft point was determined by the abrupt increase in the electrical conductivity of as a function of temperature. The intersection of the two solubility lines is the Krafft Point.

The nature of series [5]: Surface tension above CMC. It counts as physicochemical.

The structures appear in SMILES notation. Like-named read-outs stand apart in the source and are kept apart here.

With `CCCCCCCCC(C)c1ccc(S(=O)(=O)O)cc1` (centres unmarked) [2-PhC10 LAS, sodium 4-(decan-2-yl)benzenesulfonate], the figures for the “Krafft Point” value in series [1] and in series [4] were 22.0 °C (NR^2) and 22.5 °C, respectively. Moreover, the “CMC (mmol/L) at Temp (° C.)” value in series [2] is 4.4 at 22.0 °C mmol/L; in series [3], 4.5 at 20 °C mmol/L. In addition, the “Surface Tension” value in series [5] stood at 43 dynes/cm.

These data come from patent publication US9758445B2, “Preparation of surfactants via cross-metathesis” (MATERIA, INC., priority 2013, dated 2017).
